Earlier results in publication PMC11577316, “Tuning the Properties of Rigidified Acyclic DEDPA^2– Derivatives for Application in PET Using Copper-64” (Inorganic Chemistry, 2024).
Read-outs that look alike come from different tables or passages of the source. Marks after values point to notes of the source that are not given here.

Assays:
[1] = not given; remark: listed apart in the source
[2] = set-up: method as in PMID 22583103; details: vs Ag/AgCl ref 28
[3] = not given; remark: listed apart in the source

O=C(O)c1cccc(CNCCNCc2cccc(C(=O)O)n2)n1 [DEDPA^2–, 6,6′-((ethane-1,2-diylbis(azanediyl))bis(methylene))dipicolinic acid]
log K1^H (0.1 M (Me4N)(NO3) ref 25): 8.69
log K2^H (0.1 M (Me4N)(NO3) ref 25): 6.18
log K3^H (0.1 M (Me4N)(NO3) ref 25): 3.08
log K4^H (0.1 M (Me4N)(NO3) ref 25): 2.33
log K1^H (0.15 M NaCl ref 26): 9.00
log K2^H (0.15 M NaCl ref 26): 6.30
log K3^H (0.15 M NaCl ref 26): 3.06
log K4^H (0.15 M NaCl ref 26): 2.59
log KCuL ([1]; Cu(II) complex, 0.15 M NaCl ref 28): 19.16 ^d
pCu ([1]; –log [Cu(II)]free, [L]tot = 10 μM, [Cu(II)]tot = 1 μM, column footnote c: 0.15 M NaCl ref 26): 18.5

O=C([O-])c1cccc(CNCCNCc2cccc(C(=O)[O-])n2)n1.[Cu+2] [[Cu(DEDPA)]]
irreversible reduction peak [2]: −1.12 V

O=C([O-])c1cccc(CNCCNCc2cccc(C(=O)[O-])n2)n1.[64Cu+2] [[^64Cu(DEDPA)]]
stability in serum [3]: poor stability in serum
